This is an account of results in publication PMC9030254, “Target Hopping from Protein Kinases to PXR: Identification of Small-Molecule Protein Kinase Inhibitors as Selective Modulators of Pregnane X Receptor from TüKIC Library” (Cells, 2022).

Common to all, as to assay: Kinase profiling
Common to all, as to format: biochemical

One test has as its target T1, WEE1 (Homo sapiens, UniProt P30291).
T1 construct: purchased ProQinase (Freiburg, Germany)
The procedure: (§1) The analysis was performed by ProQinase (Freiburg, Germany).

A further test addresses T2, MYLK3 (Homo sapiens, UniProt Q32MK0).
T2 construct: purchased ProQinase (Freiburg, Germany)
T2 sequence (Q32MK0 1-819): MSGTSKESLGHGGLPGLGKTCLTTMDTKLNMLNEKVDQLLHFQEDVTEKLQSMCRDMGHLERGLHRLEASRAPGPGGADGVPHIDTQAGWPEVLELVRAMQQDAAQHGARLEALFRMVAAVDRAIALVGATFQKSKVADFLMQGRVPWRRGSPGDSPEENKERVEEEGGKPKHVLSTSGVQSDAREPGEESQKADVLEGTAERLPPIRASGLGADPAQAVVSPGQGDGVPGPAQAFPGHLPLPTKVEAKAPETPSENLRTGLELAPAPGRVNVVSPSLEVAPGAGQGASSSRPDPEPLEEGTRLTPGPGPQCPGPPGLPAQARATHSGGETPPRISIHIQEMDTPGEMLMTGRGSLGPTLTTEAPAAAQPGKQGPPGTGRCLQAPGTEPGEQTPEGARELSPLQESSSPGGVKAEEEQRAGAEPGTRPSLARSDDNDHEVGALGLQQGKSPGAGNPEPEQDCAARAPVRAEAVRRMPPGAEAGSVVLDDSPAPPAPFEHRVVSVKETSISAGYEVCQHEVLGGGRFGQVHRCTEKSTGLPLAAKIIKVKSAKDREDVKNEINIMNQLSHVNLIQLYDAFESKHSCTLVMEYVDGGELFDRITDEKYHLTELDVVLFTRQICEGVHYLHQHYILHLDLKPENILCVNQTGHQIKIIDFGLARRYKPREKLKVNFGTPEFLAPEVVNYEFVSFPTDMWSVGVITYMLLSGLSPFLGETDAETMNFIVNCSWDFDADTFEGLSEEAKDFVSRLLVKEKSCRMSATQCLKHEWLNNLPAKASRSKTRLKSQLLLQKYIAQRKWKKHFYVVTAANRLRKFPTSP
The procedure:
as §1

The next test deals with T3, MEKK3 (Homo sapiens, UniProt Q99759).
T3 construct: purchased ProQinase (Freiburg, Germany)
T3 sequence (Q99759 1-626): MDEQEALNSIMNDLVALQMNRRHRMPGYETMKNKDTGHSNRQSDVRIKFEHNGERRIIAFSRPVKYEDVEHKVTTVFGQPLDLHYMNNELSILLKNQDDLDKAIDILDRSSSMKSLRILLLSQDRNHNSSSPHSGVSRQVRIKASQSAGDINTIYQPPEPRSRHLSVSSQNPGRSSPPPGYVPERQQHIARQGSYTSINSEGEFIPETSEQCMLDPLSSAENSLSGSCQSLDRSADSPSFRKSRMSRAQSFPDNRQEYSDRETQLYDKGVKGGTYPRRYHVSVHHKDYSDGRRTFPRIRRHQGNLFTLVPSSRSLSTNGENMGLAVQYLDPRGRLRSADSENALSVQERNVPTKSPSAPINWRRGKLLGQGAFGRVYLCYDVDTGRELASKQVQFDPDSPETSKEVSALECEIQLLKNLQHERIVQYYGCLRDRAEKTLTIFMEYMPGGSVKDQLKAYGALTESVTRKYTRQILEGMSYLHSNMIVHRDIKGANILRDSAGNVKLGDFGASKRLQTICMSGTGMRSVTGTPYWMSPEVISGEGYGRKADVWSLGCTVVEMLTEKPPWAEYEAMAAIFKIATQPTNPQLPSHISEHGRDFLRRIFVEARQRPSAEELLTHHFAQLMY
The procedure: as §1

Another test concerns the target T4, MAP4K5 (Homo sapiens, UniProt Q9Y4K4).
T4 construct: purchased ProQinase (Freiburg, Germany)
The procedure: as §1

For a further test, the target named is T5, PIM2 (Homo sapiens, UniProt Q9P1W9).
T5 construct: purchased ProQinase (Freiburg, Germany)
T5 sequence (Q9P1W9 whole entry): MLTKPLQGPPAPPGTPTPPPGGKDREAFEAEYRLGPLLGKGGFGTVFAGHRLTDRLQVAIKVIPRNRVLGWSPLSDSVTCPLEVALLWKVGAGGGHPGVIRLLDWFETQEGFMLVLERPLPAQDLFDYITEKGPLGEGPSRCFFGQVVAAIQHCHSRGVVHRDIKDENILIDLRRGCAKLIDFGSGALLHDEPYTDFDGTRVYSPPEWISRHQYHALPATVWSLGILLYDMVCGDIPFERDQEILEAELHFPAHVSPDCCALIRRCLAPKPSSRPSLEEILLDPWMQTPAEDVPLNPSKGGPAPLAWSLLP
The procedure: as §1

The target in another test is T6, CK1gamma3 (Homo sapiens, UniProt Q9Y6M4).
T6 construct: purchased ProQinase (Freiburg, Germany)
T6 sequence (Q9Y6M4 whole entry): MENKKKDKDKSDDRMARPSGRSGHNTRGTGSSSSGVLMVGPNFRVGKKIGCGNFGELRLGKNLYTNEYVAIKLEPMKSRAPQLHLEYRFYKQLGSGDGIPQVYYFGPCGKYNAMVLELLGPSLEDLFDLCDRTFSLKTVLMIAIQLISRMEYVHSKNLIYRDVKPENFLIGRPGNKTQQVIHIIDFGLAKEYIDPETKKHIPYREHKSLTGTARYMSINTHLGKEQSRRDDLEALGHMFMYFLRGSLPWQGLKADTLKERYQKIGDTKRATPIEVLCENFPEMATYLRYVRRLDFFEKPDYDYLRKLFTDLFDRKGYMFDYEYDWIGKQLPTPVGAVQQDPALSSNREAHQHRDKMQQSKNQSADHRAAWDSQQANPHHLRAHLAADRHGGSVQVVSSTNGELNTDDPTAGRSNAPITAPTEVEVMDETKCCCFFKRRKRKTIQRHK
The procedure: as §1

Another test has as its target T7, VEGFR2 (Homo sapiens, UniProt P35968).
T7 construct: purchased ProQinase (Freiburg, Germany)
The procedure: as §1

In the next test the target is T8, RIPK5 (Homo sapiens, UniProt Q6XUX3).
T8 construct: purchased ProQinase (Freiburg, Germany)
T8 sequence (Q6XUX3 1-929): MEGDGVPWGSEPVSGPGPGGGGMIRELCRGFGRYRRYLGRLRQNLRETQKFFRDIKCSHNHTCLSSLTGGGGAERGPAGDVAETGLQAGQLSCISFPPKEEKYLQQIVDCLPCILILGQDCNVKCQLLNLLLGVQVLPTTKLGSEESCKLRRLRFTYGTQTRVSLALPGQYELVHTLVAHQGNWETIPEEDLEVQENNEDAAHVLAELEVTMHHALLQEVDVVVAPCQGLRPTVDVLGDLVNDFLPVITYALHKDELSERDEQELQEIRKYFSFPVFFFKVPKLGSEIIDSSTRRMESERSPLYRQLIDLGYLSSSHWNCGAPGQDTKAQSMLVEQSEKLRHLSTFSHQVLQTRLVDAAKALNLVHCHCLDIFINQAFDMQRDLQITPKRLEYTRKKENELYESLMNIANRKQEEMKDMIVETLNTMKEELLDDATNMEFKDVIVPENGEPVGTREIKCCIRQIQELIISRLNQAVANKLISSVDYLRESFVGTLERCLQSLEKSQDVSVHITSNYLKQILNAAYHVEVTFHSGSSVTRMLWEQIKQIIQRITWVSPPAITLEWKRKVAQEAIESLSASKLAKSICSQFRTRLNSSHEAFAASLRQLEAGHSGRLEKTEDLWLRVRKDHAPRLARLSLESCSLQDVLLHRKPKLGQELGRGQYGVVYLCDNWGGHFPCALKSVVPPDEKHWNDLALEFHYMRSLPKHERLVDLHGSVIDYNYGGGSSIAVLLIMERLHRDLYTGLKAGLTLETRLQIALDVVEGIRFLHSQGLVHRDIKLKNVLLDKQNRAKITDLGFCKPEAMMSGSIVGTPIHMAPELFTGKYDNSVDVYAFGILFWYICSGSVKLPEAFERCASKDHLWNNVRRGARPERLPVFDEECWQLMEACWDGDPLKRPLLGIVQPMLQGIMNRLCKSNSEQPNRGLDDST
The procedure: as §1

Bounds are passed on as bounds.

T1 sequence (P30291 whole entry): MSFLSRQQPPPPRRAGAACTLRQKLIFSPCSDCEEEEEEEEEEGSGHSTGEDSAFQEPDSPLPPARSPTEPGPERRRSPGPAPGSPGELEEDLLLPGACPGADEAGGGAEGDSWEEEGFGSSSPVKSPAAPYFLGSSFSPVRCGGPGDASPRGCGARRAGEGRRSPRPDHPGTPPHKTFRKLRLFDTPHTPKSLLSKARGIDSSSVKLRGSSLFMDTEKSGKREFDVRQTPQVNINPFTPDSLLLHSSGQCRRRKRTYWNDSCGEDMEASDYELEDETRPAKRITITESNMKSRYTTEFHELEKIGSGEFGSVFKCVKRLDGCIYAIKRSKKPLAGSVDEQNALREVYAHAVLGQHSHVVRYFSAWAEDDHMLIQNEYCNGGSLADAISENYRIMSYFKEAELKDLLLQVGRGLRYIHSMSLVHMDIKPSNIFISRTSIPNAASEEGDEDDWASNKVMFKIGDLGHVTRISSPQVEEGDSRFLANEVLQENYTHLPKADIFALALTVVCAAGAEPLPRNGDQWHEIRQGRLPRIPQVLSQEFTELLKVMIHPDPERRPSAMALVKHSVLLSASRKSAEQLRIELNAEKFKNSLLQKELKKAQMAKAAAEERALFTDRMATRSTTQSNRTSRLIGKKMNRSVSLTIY
T4 sequence (Q9Y4K4 whole entry): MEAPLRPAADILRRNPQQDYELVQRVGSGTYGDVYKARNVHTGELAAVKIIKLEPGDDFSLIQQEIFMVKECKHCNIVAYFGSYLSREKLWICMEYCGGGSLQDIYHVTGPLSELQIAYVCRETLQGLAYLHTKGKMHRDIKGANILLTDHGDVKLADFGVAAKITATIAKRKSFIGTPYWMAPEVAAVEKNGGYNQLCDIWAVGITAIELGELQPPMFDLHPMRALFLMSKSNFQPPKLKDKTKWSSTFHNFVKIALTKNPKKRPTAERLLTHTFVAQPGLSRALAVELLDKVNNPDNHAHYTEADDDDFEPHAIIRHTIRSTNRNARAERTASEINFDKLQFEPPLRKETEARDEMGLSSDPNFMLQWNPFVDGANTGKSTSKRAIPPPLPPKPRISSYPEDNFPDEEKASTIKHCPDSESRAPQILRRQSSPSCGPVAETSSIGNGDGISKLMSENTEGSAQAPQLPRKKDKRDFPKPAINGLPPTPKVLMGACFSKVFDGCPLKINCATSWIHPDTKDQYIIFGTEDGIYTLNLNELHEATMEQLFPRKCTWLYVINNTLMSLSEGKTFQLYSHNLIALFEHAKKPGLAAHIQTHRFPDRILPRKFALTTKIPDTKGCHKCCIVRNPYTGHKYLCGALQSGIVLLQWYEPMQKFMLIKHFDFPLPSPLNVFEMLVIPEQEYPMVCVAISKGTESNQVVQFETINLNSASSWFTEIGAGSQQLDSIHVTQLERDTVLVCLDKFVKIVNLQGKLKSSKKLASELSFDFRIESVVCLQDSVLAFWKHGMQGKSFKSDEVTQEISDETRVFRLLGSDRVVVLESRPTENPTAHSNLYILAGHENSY
T7 sequence (P35968 20-1356): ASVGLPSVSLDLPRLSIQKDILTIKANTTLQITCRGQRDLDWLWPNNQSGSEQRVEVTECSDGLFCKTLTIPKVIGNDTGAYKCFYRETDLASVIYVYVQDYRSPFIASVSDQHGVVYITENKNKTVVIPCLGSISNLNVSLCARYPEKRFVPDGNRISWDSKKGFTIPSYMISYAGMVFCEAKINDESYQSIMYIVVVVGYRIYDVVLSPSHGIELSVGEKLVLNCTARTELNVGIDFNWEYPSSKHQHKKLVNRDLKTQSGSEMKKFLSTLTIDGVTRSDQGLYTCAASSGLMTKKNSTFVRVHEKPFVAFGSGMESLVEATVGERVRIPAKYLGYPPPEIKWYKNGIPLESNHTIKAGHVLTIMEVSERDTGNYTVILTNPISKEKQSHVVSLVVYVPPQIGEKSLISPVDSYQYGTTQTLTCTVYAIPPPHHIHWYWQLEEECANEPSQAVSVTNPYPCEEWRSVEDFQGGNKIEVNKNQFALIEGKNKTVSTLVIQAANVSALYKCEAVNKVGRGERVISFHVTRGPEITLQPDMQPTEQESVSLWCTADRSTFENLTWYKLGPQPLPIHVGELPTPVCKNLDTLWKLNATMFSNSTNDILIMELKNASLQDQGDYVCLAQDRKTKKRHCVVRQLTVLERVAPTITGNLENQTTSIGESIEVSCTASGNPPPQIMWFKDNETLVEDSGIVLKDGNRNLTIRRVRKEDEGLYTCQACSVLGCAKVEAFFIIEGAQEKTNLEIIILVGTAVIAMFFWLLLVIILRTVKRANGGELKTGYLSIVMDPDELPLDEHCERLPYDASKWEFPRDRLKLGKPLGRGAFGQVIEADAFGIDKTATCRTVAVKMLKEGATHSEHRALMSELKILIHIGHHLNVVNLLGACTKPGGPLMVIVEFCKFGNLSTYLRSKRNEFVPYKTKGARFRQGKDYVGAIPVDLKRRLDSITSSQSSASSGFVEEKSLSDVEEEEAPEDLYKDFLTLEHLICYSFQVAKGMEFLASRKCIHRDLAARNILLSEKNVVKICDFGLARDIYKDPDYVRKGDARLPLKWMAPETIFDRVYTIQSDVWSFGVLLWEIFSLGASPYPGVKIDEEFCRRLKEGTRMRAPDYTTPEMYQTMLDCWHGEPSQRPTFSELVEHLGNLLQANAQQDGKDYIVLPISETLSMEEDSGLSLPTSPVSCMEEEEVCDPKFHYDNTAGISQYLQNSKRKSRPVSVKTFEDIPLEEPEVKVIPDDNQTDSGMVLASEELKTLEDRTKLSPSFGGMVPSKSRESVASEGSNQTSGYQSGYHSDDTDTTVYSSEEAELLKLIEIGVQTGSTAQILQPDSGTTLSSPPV

Take `O=C(Cc1ccccc1)Nc1ccc(F)c(Nc2ccc3c(c2)CCCCC3=O)c1` [Compound 100]: the Residual activity is on record as 100 % of control at WEE1 (1.0E-05 M); 103 % of control on WEE1 (1.0E-06 M); 70 % of control on MYLK3 (1.0E-05 M); 97 % of control at MYLK3 (1.0E-06 M); 104 % of control at MEKK3 (1.0E-05 M); 95 % of control on MEKK3 (1.0E-06 M). Also, the Residual activity at MAP4K5 (1.0E-05 M) was 94 % of control; at MAP4K5 (1.0E-06 M), 98 % of control; on PIM2 (1.0E-05 M), 92 % of control; on PIM2 (1.0E-06 M) it was 109 % of control; on CK1gamma3 (1.0E-05 M) it was 105 % of control; on CK1gamma3 (1.0E-06 M) it was 101 % of control. Also, the Residual activity is on record as 77 % of control on VEGFR2 (1.0E-05 M), 98 % of control on VEGFR2 (1.0E-06 M), 99 % of control at RIPK5 (1.0E-05 M) and 100 % of control at RIPK5 (1.0E-06 M).

Regarding `O=C(Nc1ccc(F)c(Nc2ccc3c(c2)CCCCC3=O)c1)c1cccc(F)c1` [Compound 109], the Residual activity is given as 95 % of control at WEE1 (1.0E-05 M); 100 % of control on WEE1 (1.0E-06 M); 80 % of control on MYLK3 (1.0E-05 M); 103 % of control on MYLK3 (1.0E-06 M); 102 % of control on MEKK3 (1.0E-05 M); 94 % of control on MEKK3 (1.0E-06 M). Besides, the Residual activity is reported as 92 % of control on MAP4K5 (1.0E-05 M); 92 % of control on MAP4K5 (1.0E-06 M); 86 % of control at PIM2 (1.0E-05 M); 100 % of control at PIM2 (1.0E-06 M); 32 % of control on CK1gamma3 (1.0E-05 M); 79 % of control on CK1gamma3 (1.0E-06 M). Besides, the Residual activity on VEGFR2 (1.0E-05 M) is listed as 79 % of control; at VEGFR2 (1.0E-06 M), 84 % of control; at RIPK5 (1.0E-05 M) it was 100 % of control; on RIPK5 (1.0E-06 M), 101 % of control. Also, the inhibition (in general, the percentage by which the read-out fell short of the control) at 10 µM on CK1gamma3 (10 µM, read-out: inhibition of CK1-γ3) was at least 50%.
